Measured values: patent publication US20070123488A1, “Pharmaceutical composition comprising a zinc-hyaluronate complex for the treatment of multiple sclerosis” (RICHTER GEDEON VEGYESZETI GYAR RT., priority 2003, published 2007)
“Also recorded” adds a separate entry of the source.

Key:
EAE = settings: rabbits, intramuscularly; cited from earlier work
[1] = molecular target: matrix metalloproteinases, particularly the MMP-9 (Homo sapiens, UniProt P14780); settings: cited from earlier work
[2] = tested on: experimental autoimmune encephalomyelitis (EAE) provoked by myelin oligodendrocyte glycoprotein (MOG); assay: CR EAE provoked by MOG in mice, s.c. treatment; format: in vivo; settings: for ASC (treatment from day 5 to day 22): HMW Zn-HA 10 mg/kg, ZnCl2 equivalent to 0.8 mg/kg Zn2+; for Effect on the EAE model (in words): mice
Text: The only adequate and widely used model available for purposes of preclinical investigations of multiple sclerosis is the experimental autoimmune encephalomyelitis (EAE) (Mokhatarian et al., Nature 309, 356-358. (1984); Raine et al., Lab. Invest. 31, 369-380. (1974)), an inflammatory disease of the central nervous system transmitted by CD4^+ T-lymphocytes. Although the clinical complexity of the model is moderate compared with the disease investigated, its use is unavoidable in a research aimed at MS. Preclinical tests of Copolymer-1 (Copaxone) and interferon beta-1 already approved for human treatment, as well as those of the new drugs under development were/are carried out using this model (Popovic et al., Ann. Neurol. 51, 215-223. (2001); Stanislaus et al., Neurosci. Lett. 333, 167-170. (2002)). […] That's why in our experiments CR EAE provoked by myelin oligodendrocyte glycoprotein (MOG) in mice has been studied (Amor et al., J. Immunol. 153, 4349-4356. (1994)). In the middle of the 1960s the effect of hyaluronan sodium salt was investigated by Romanian research workers on EAE model.
Next, the possible effect of the HMW Zn-HA (10 mg/kg in 200 μl of physiological saline, subcutane) on the time of appearance of clinical symptoms has been investigated.
Tests were carried out on groups of mice (n=6-10 mice/group) using two types of treatment: (i) prophylactic, wherein administration happens from day 5 to day 22 after inoculation of MOG, or in a single case from day 9-10 to day 28 after that (marked with # in tables 2 and 3); and (ii) therapeutic treatment, wherein administration of the Zn-HA happened from day 13 to day 28 after the EAE had been induced (marked with * in tables 2 and 3).
The mice were given 10 mg/kg HMW Zn-HA s. c. daily and clinical data thereof were obtained from day 10 to day 28 and day 5 to day 22, respectively, after the EAE had been induced. The results were calculated from the average daily clinical data to give the average summed up clinical data (ASC).
In the studies summarized in Tables 1 to 4 each mouse used as EAE model received 200 μl s. c. injection each; the injection contained the active ingredient or the carrier (0.9% sodium chloride aqueous solution). To obtain the doses given in terms of mg/kg bodyweight above solutions of different concentration were prepared as follows: […]

[3] = compared with the sodium-HA salt; cited from earlier work

Sequence of matrix metalloproteinases, particularly the MMP-9 (P14780 94-707): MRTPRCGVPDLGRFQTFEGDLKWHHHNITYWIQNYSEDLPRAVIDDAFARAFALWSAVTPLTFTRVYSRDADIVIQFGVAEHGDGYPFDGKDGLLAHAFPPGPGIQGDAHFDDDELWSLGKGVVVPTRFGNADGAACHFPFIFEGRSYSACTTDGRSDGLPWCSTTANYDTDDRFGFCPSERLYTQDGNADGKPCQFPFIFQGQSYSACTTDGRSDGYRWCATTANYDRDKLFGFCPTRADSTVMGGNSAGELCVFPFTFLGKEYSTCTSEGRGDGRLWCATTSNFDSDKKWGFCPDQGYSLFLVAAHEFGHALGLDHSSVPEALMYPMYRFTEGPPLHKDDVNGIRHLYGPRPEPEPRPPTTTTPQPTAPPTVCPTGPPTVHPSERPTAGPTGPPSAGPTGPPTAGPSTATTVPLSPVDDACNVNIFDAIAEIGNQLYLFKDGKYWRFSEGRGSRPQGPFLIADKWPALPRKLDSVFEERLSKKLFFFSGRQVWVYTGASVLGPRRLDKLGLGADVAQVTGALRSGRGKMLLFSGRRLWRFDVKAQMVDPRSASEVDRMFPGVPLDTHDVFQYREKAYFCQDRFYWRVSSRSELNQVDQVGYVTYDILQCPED

Molecule	Effect on development of EAE (in words) (EAE)	Inhibitory effect on tissue damaging enzymes (matrix metalloproteinases, particularly the MMP-9) [1]	ASC (treatment from day 5 to day 22) [2]	Effect on the EAE model (in words) ([2]; listed as Na-HA)	Effect on the EAE model (in words) ([2]; listed as Na-HA salt)	Effect on the EAE model (in words) ([2]; listed as Na-hyaluronan)	Effect on the EAE model (in words) [2]	Effect on the EAE model (in words) ([2]; listed as Zn^2+)	Antioxidant activity [3]
Na-hyaluronan [HMW Na-HA]	did not inhibit, but in certain cases did assist the development of EAE	does not show the latter effect	14.2 ± 1.9	ineffective	ineffective; also recorded: did not show significant effect	didn't exert any influence	–	–	–
[Cl-].[Cl-].[Zn+2] [ZnCl2, zinc chloride]	–	–	14.2 ± 3.3	–	–	–	did not show significant effect	ineffective	–
zinc-hyaluronan complex [zinc-HA]	–	inhibitory effect	–	–	–	–	–	–	increased antioxidant activity
